Assay results: PMC3418399 (Molecular microbiology, 2012)
Non-standard residues stand in square brackets, D forms with d.

Legend:
[1] = test system: AD/pABC3 (Control); experiment: MIC, liquid microdilution; type: cell-based, Saccharomyces cerevisiae; settings: 48 h
[2] = test system: AD/CDR1 (Wild type CaCdr1p); experiment: MIC, liquid microdilution; type: cell-based, Saccharomyces cerevisiae; settings: 48 h
[3] = test system: EL1/TM2 (CaCdr1p G547R); experiment: MIC, liquid microdilution; type: cell-based, Saccharomyces cerevisiae; settings: 48 h
[4] = test system: EL3 (CaCdr1p Q714K); experiment: MIC, liquid microdilution; type: cell-based, Saccharomyces cerevisiae; settings: 48 h
[5] = test system: EL4-1 (CaCdr1p Q1226K); experiment: MIC, liquid microdilution; type: cell-based, Saccharomyces cerevisiae; settings: 48 h
[6] = test system: EL4-2 (CaCdr1p Q1226R); experiment: MIC, liquid microdilution; type: cell-based, Saccharomyces cerevisiae; settings: 48 h
[7] = test system: EL6 (CaCdr1p Q1445R); experiment: MIC, liquid microdilution; type: cell-based, Saccharomyces cerevisiae; settings: 48 h
[8] = test system: TM5 (CaCdr1p V674F); experiment: MIC, liquid microdilution; type: cell-based, Saccharomyces cerevisiae; settings: 48 h
[9] = biological target: T1, Pma1p ATPase (Saccharomyces cerevisiae, UniProt P05030); experiment: Pma1p ATPase assay; type: biochemical; settings: read-out: IC50 Pma1p ATPase; pH 7.0, 10 μM oligomycin
T1 sequence (P05030 1-918): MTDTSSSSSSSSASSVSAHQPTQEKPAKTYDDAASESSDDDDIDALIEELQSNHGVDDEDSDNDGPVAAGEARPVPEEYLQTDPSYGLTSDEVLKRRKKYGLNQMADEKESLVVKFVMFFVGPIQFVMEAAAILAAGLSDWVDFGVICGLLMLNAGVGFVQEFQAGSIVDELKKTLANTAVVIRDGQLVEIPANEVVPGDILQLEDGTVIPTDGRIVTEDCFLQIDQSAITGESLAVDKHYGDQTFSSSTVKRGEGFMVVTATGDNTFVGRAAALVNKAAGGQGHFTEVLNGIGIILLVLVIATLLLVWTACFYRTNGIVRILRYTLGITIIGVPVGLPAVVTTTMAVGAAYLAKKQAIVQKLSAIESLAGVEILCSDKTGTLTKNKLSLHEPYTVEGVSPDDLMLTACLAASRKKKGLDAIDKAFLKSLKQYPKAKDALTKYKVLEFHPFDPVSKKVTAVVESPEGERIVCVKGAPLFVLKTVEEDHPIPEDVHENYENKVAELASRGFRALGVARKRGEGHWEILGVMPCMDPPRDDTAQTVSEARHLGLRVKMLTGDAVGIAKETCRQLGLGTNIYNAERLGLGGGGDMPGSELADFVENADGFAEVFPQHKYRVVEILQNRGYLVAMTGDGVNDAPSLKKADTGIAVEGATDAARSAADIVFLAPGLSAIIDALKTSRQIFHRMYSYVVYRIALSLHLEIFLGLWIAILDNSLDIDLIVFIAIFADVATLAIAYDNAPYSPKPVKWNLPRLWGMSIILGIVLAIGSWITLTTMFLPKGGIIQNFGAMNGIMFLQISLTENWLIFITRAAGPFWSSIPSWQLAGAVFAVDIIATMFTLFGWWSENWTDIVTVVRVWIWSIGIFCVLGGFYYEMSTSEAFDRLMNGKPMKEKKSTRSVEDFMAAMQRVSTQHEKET

[10] = AD/pABC3, Control, milbemycins and micafungin, I95, CSM pH 7.0, 30°C
[11] = AD/CDR1, Wild type, milbemycins and micafungin, I95, CSM pH 7.0, 30°C
[12] = EL1/TM2, G547R, milbemycins and micafungin, I95, CSM pH 7.0, 30°C
[13] = EL3, Q714K, milbemycins and micafungin, I95, CSM pH 7.0, 30°C
[14] = EL4-1, Q1226K, milbemycins and micafungin, I95, CSM pH 7.0, 30°C
[15] = EL4-2, Q1226R, milbemycins and micafungin, I95, CSM pH 7.0, 30°C
[16] = EL6, Q1445R, milbemycins and micafungin, I95, CSM pH 7.0, 30°C
[17] = TM5, V674F, milbemycins and micafungin, I95, CSM pH 7.0, 30°C

## COC(=O)c1ccccc1-c1c2ccc(=N)cc-2oc2cc(N)ccc12 [Rhodamine 123]
[1]; Saccharomyces cerevisiae, pH 7
  MIC: 8 µM
[2]; Saccharomyces cerevisiae, pH 7
  MIC: 300 µM
[3]; Saccharomyces cerevisiae, pH 7
  MIC: 150 µM
[4]; Saccharomyces cerevisiae, pH 7
  MIC: 200 µM
[5]; Saccharomyces cerevisiae, pH 7
  MIC: 150 µM
[6]; Saccharomyces cerevisiae, pH 7
  MIC: 200 µM
[7]; Saccharomyces cerevisiae, pH 7
  MIC: 200 µM
[8]; Saccharomyces cerevisiae, pH 7
  MIC: 150 µM

## CC/N=c1\cc2oc3cc(NCC)c(C)cc3c(-c3ccccc3C(=O)OCC)c-2cc1C [Rhodamine 6G]
[1]; Saccharomyces cerevisiae, pH 7
  MIC: 1 µM
[2]; Saccharomyces cerevisiae, pH 7
  MIC: 75 µM
[3]; Saccharomyces cerevisiae, pH 7
  MIC: 50 µM
[4]; Saccharomyces cerevisiae, pH 7
  MIC: 75 µM
[5]; Saccharomyces cerevisiae, pH 7
  MIC: 50 µM
[6]; Saccharomyces cerevisiae, pH 7
  MIC: 50 µM
[7]; Saccharomyces cerevisiae, pH 7
  MIC: 75 µM
[8]; Saccharomyces cerevisiae, pH 7
  MIC: 50 µM

## C/C=C(\C)C(=O)OCC1=C[C@H]2C(=O)O[C@H]3C[C@@H](C/C=C(\C)C[C@@H](C)/C=C/C=C4\CO[C@H]([C@@H]1O)[C@@]42O)O[C@@]1(CC[C@H](C)[C@@H](C)O1)C3 [Milbemycin α20]
[1]; [10]
  MIC: >8 µg/mL
[2]; [11]
  MIC: >8 µg/mL
[3]; [12]
  MIC: >8 µg/mL
[4]; [13]
  MIC: >8 µg/mL
[5]; [14]
  MIC: >8 µg/mL
[6]; [15]
  MIC: >8 µg/mL
[7]; [16]
  MIC: >8 µg/mL
[8]; [17]
  MIC: >8 µg/mL

## Milbemycin α26
[1]; [10]
  MIC: 8 µg/mL
[2]; [11]
  MIC: 8 µg/mL
[3]; [12]
  MIC: 8 µg/mL
[4]; [13]
  MIC: 8 µg/mL
[5]; [14]
  MIC: 8 µg/mL
[6]; [15]
  MIC: 8 µg/mL
[7]; [16]
  MIC: 8 µg/mL
[8]; [17]
  MIC: 8 µg/mL

## CC(=O)N1CCN(c2ccc(OCC3COC(Cn4ccnc4)(c4ccc(Cl)cc4Cl)O3)cc2)CC1 (stereo not drawn) [Ketoconazole]
[1]; Saccharomyces cerevisiae, pH 7
  MIC: 0.156 µg/mL
[2]; Saccharomyces cerevisiae, pH 7
  MIC: 4 µg/mL
[3]; Saccharomyces cerevisiae, pH 7
  MIC: 1 µg/mL
[4]; Saccharomyces cerevisiae, pH 7
  MIC: 4 µg/mL
[5]; Saccharomyces cerevisiae, pH 7
  MIC: 1 µg/mL
[6]; Saccharomyces cerevisiae, pH 7
  MIC: 4 µg/mL
[7]; Saccharomyces cerevisiae, pH 7
  MIC: 4 µg/mL
[8]; Saccharomyces cerevisiae, pH 7
  MIC: 3 µg/mL

## D-NH2-FFKWQRRR-CONH2 (H-[dF][dF][dK][dW][dQ][dR][dR][dR]-NH2)
[9]
  IC50: 5 µM

## C[C@@H](c1ncncc1F)[C@](O)(Cn1cncn1)c1ccc(F)cc1F [Voriconazole]
[1]; Saccharomyces cerevisiae, pH 7
  MIC: 0.156 µg/mL
[2]; Saccharomyces cerevisiae, pH 7
  MIC: 8 µg/mL
[3]; Saccharomyces cerevisiae, pH 7
  MIC: 2.5 µg/mL
[4]; Saccharomyces cerevisiae, pH 7
  MIC: 8 µg/mL
[5]; Saccharomyces cerevisiae, pH 7
  MIC: 2.5 µg/mL
[6]; Saccharomyces cerevisiae, pH 7
  MIC: 6 µg/mL
[7]; Saccharomyces cerevisiae, pH 7
  MIC: 10 µg/mL
[8]; Saccharomyces cerevisiae, pH 7
  MIC: 4 µg/mL

## C[C@@H]1C[C@@H]([C@H](O)CC2CC(=O)NC(=O)C2)C(=O)[C@@H](C)C1 [Cycloheximide]
[1]; Saccharomyces cerevisiae, pH 7
  MIC: 0.008 µg/mL
[2]; Saccharomyces cerevisiae, pH 7
  MIC: 1 µg/mL
[3]; Saccharomyces cerevisiae, pH 7
  MIC: 0.5 µg/mL
[4]; Saccharomyces cerevisiae, pH 7
  MIC: 1 µg/mL
[5]; Saccharomyces cerevisiae, pH 7
  MIC: 0.5 µg/mL
[6]; Saccharomyces cerevisiae, pH 7
  MIC: 1 µg/mL
[7]; Saccharomyces cerevisiae, pH 7
  MIC: 2 µg/mL
[8]; Saccharomyces cerevisiae, pH 7
  MIC: 1 µg/mL

## CC1=C[C@H]2C(=O)O[C@H]3C[C@@H](C/C=C(\C)C[C@@H](C)/C=C/C=C(\C)[C@]2(O)[C@H](O)[C@@H]1O)O[C@@]1(CC[C@H](C)[C@@H](C)O1)C3 [Milbemycin β11]
[1]; [10]
  MIC: >8 µg/mL
[2]; [11]
  MIC: >8 µg/mL
[3]; [12]
  MIC: >8 µg/mL
[4]; [13]
  MIC: >8 µg/mL
[5]; [14]
  MIC: >8 µg/mL
[6]; [15]
  MIC: >8 µg/mL
[7]; [16]
  MIC: >8 µg/mL
[8]; [17]
  MIC: >8 µg/mL

## Milbemycin α25
[1]; [10]
  MIC: 8 µg/mL
[2]; [11]
  MIC: 8 µg/mL
[3]; [12]
  MIC: 8 µg/mL
[4]; [13]
  MIC: >8 µg/mL
[5]; [14]
  MIC: 8 µg/mL
[6]; [15]
  MIC: >8 µg/mL
[7]; [16]
  MIC: >8 µg/mL
[8]; [17]
  MIC: >8 µg/mL

## Clc1ccc(COC(Cn2ccnc2)c2ccc(Cl)cc2Cl)c(Cl)c1 (stereo not drawn) [Miconazole]
[1]; Saccharomyces cerevisiae, pH 7
  MIC: 0.156 µg/mL
[2]; Saccharomyces cerevisiae, pH 7
  MIC: 2.5 µg/mL
[3]; Saccharomyces cerevisiae, pH 7
  MIC: 1 µg/mL
[4]; Saccharomyces cerevisiae, pH 7
  MIC: 2.5 µg/mL
[5]; Saccharomyces cerevisiae, pH 7
  MIC: 1 µg/mL
[6]; Saccharomyces cerevisiae, pH 7
  MIC: 3 µg/mL
[7]; Saccharomyces cerevisiae, pH 7
  MIC: 3 µg/mL
[8]; Saccharomyces cerevisiae, pH 7
  MIC: 2 µg/mL
